Source: patent US20240067693A1, “POLYPEPTIDES AND USES THEREOF” (MEDIMMUNE LIMITED, priority 2020, published 2024)
Numbered stars: 1 amine (or outer) side, 2 acyl side, 3 side chain; on linkers, the order of the positions; unused ones are H or OH. Bridge positions count the residues as written; N and C are the ends. Square brackets hold non-standard residues; d marks the D form. Side chains are listed from the residue outwards. Peptide text beside a SMILES is read from it. * marks the point of attachment. C18 diacid = O=C(O)CCCCCCCCCCCCCCCCC(=O)*; γGlu = O=C(O)[C@H](CCC(=O)[*:2])N[*:1]; AEEA = NCCOCCOCC(=O)O; Aib = CC(C)(N)C(=O)O

Columns and labels:
[1] = biological target: T1, human calcitonin receptor (hCTR) (Homo sapiens, UniProt P30988); experiment: cAMP production in 1321N1 cells with stable recombinant expression of human calcitonin receptor (hCTR); assay type: cell-based; details: cAMP, 1321N1 cells, assay buffer with 0.1% BSA; read-out: EC50 (pM) hCTR
T1 construct: expressed in transfected cells
T1 sequence (P30988 25-474): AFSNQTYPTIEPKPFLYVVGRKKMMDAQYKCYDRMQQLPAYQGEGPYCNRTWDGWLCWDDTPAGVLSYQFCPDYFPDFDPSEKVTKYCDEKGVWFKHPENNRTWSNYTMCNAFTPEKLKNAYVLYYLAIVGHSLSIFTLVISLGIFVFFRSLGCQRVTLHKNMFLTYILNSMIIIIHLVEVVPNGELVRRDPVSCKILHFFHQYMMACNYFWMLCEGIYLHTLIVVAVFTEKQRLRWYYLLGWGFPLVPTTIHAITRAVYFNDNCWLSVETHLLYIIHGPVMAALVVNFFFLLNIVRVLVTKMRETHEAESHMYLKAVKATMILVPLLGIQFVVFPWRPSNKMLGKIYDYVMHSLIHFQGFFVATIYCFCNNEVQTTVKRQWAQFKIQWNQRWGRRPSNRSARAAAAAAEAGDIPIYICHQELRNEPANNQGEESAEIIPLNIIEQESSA
Procedure, shortened: (§1)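 Thawed cells in HBSS/0.1% BSA/25 mM HEPES pH 7.4 with 0.5 mM IBMX were incubated with peptides 30 min at room temperature; cAMP read by HTRF. EC50 from 4-parameter fit of % activation relative to maximal amylin or calcitonin effect.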

[2] = biological target: T2, human amylin receptor (calcitonin receptor co-expressed with receptor activity modifying protein, RAMP3) (hAMYR3) (Homo sapiens, UniProt O60896+P30988); experiment: cAMP production in 1321N1 cells with stable recombinant expression of human amylin receptor (hAMYR3); assay type: cell-based; details: for Ratio (selectivity hAMYR vs hCTR, ratio of EC50 values at the two receptors): EC50 hCTR / EC50 hAMYR3; for EC50: cAMP, 1321N1 cells, assay buffer with 0.1% BSA, read-out: EC50 (pM) hAMYR3
T2 construct: expressed in transfected cells
T2 sequence (P30988 25-474): T1 sequence (P30988 25-474)
T2 sequence (O60896 24-148 partner): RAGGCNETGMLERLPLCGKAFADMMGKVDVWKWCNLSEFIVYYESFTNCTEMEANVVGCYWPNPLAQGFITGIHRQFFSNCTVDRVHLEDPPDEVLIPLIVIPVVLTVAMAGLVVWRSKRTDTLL
Procedure, shortened: as §1

Structure (SMILES) | EC50 [1] | Ratio (selectivity hAMYR vs hCTR, ratio of EC50 values at the two receptors) [2] | EC50 [2]
CC[C@H](C)[C@H](NC(=O)[C@@H]1CCCN1C(=O)CNC(=O)[C@H](Cc1ccccc1)NC(=O)[C@H](CC(N)=O)NC(=O)C(C)(C)NC(=O)[C@H](CO)NC(=O)[C@H](CO)NC(=O)[C@H](Cc1c[nH]cn1)NC(=O)[C@H](CCCNC(=N)N)NC(=O)[C@H](CC(C)C)NC(=O)[C@H](Cc1ccccc1)NC(=O)[C@H](CC(N)=O)NC(=O)[C@H](C)NC(=O)[C@H](CC(C)C)NC(=O)[C@H](CCCNC(=N)N)NC(=O)[C@H](CCC(N)=O)NC(=O)[C@@H](NC(=O)[C@H](C)NC(=O)[C@@H]1CSSC[C@H](NC(=O)[C@@H](N)CCCCNC(=O)COCCOCCNC(=O)COCCOCCNC(=O)CC[C@H](NC(=O)CCCCCCCCCCCCCCCCC(=O)O)C(=O)O)C(=O)N[C@@H](CC(N)=O)C(=O)N[C@@H]([C@@H](C)O)C(=O)N[C@@H](C)C(=O)N[C@@H]([C@@H](C)O)C(=O)N1)[C@@H](C)O)C(=O)N[C@@H](CC(C)C)C(=O)N1CCC[C@H]1C(=O)N1CCC[C@H]1C(=O)N[C@H](C(=O)N[C@@H](CCC(=O)O)C(=O)N[C@H](C(=O)NCC(=O)N[C@@H](CO)C(=O)N[C@@H](CC(N)=O)C(=O)N[C@H](C(=O)N[C@@H](Cc1ccc(O)cc1)C(N)=O)[C@@H](C)O)C(C)C)[C@@H](C)O [Peptide 45, K(O2Oc-O2Oc-γE-C18diacid)[CNTATC]ATQRLANFLRHSS(Aib)NFGPILPPTEVGSNTY-amide] (H-K([AEEA-AEEA-γGlu-C18 diacid])CNTATCATQRLANFLRHSS[Aib]NFGPILPPTEVGSNTY-NH2; disulfide 2-7; N-terminus assumed) | 16900 pM | 29 | 588 pM
CC[C@H](C)[C@H](NC(=O)[C@@H]1CCCN1C(=O)CNC(=O)[C@H](Cc1ccccc1)NC(=O)[C@H](CC(N)=O)NC(=O)C(C)(C)NC(=O)[C@H](CO)NC(=O)[C@H](CO)NC(=O)[C@H](Cc1c[nH]cn1)NC(=O)[C@@H](NC(=O)[C@H](CC(C)C)NC(=O)[C@H](Cc1ccccc1)NC(=O)[C@H](Cc1c[nH]cn1)NC(=O)[C@H](C)NC(=O)[C@H](CC(C)C)NC(=O)[C@H](CCCNC(=N)N)NC(=O)[C@H](CCC(N)=O)NC(=O)[C@@H](NC(=O)[C@H](C)NC(=O)[C@@H]1CSSC[C@H](NC(=O)[C@H](CCCCN)NC(=O)[C@@H](N)CCCCNC(=O)CC[C@H](NC(=O)CCCCCCCCCCCCCCCCC(=O)O)C(=O)O)C(=O)N[C@@H](CC(N)=O)C(=O)N[C@@H]([C@@H](C)O)C(=O)N[C@@H](C)C(=O)N[C@@H]([C@@H](C)O)C(=O)N1)[C@@H](C)O)C(C)C)C(=O)N[C@@H](CC(C)C)C(=O)N1CCC[C@H]1C(=O)N1CCC[C@H]1C(=O)N[C@H](C(=O)N[C@@H](CC(N)=O)C(=O)N[C@H](C(=O)NCC(=O)N[C@@H](CO)C(=O)N[C@@H](CC(N)=O)C(=O)N[C@H](C(=O)N[C@@H](Cc1ccc(O)cc1)C(N)=O)[C@@H](C)O)C(C)C)[C@@H](C)O [Peptide 46, K(γE-C18diacid)K[CNTATC]ATQRLAHFLVHSS(Aib)NFGPILPPTNVGSNTY-amide] (H-K([γGlu-C18 diacid])KCNTATCATQRLAHFLVHSS[Aib]NFGPILPPTNVGSNTY-NH2; disulfide 3-8) | 362 pM | 3 | 109 pM

Further lines, results first:

EC50 [1] | Ratio (selectivity hAMYR vs hCTR, ratio of EC50 values at the two receptors) [2] | EC50 [2] | Structure (SMILES)
1960 pM | 8 | 249 pM | CC[C@H](C)[C@H](NC(=O)[C@@H]1CCCN1C(=O)CNC(=O)[C@H](Cc1ccccc1)NC(=O)[C@H](CC(N)=O)NC(=O)C(C)(C)NC(=O)[C@H](CO)NC(=O)[C@H](CO)NC(=O)[C@H](Cc1c[nH]cn1)NC(=O)[C@H](CO)NC(=O)[C@H](CC(C)C)NC(=O)[C@H](Cc1ccccc1)NC(=O)[C@H](CC(N)=O)NC(=O)[C@H](C)NC(=O)[C@H](CC(C)C)NC(=O)[C@H](CCCNC(=N)N)NC(=O)[C@H](CCC(N)=O)NC(=O)[C@@H](NC(=O)[C@H](C)NC(=O)[C@@H]1CSSC[C@H](NC(=O)[C@H](CCCCN)NC(=O)[C@@H](N)CCCCNC(=O)CC[C@H](NC(=O)CCCCCCCCCCCCCCCCC(=O)O)C(=O)O)C(=O)N[C@@H](CC(N)=O)C(=O)N[C@@H]([C@@H](C)O)C(=O)N[C@@H](C)C(=O)N[C@@H]([C@@H](C)O)C(=O)N1)[C@@H](C)O)C(=O)N[C@@H](CC(C)C)C(=O)N1CCC[C@H]1C(=O)N1CCC[C@H]1C(=O)N[C@H](C(=O)N[C@@H](CC(N)=O)C(=O)N[C@H](C(=O)NCC(=O)N[C@@H](CO)C(=O)N[C@@H](CC(N)=O)C(=O)N[C@H](C(=O)N[C@@H](Cc1ccc(O)cc1)C(N)=O)[C@@H](C)O)C(C)C)[C@@H](C)O [Peptide 37, K(γE-C18diacid)K[CNTATC]ATQRLANFLSHSS(Aib)NFGPILPPTNVGSNTY-amide] (H-K([γGlu-C18 diacid])KCNTATCATQRLANFLSHSS[Aib]NFGPILPPTNVGSNTY-NH2; disulfide 3-8)
10400 pM | 10 | 1050 pM | CC[C@H](C)[C@H](NC(=O)[C@@H]1CCCN1C(=O)CNC(=O)[C@H](Cc1ccccc1)NC(=O)[C@H](CC(N)=O)NC(=O)C(C)(C)NC(=O)[C@H](CO)NC(=O)[C@H](CO)NC(=O)[C@H](Cc1c[nH]cn1)NC(=O)[C@H](CCC(=O)O)NC(=O)[C@H](CC(C)C)NC(=O)[C@H](Cc1ccccc1)NC(=O)[C@H](CC(N)=O)NC(=O)[C@H](C)NC(=O)[C@H](CC(C)C)NC(=O)[C@H](CCCNC(=N)N)NC(=O)[C@H](CCC(N)=O)NC(=O)[C@@H](NC(=O)[C@H](C)NC(=O)[C@@H]1CSSC[C@H](NC(=O)[C@H](CCCCN)NC(=O)[C@@H](N)CCCCNC(=O)CC[C@H](NC(=O)CCCCCCCCCCCCCCCCC(=O)O)C(=O)O)C(=O)N[C@@H](CC(N)=O)C(=O)N[C@@H]([C@@H](C)O)C(=O)N[C@@H](C)C(=O)N[C@@H]([C@@H](C)O)C(=O)N1)[C@@H](C)O)C(=O)N[C@@H](CC(C)C)C(=O)N1CCC[C@H]1C(=O)N1CCC[C@H]1C(=O)N[C@H](C(=O)N[C@@H](CC(N)=O)C(=O)N[C@H](C(=O)NCC(=O)N[C@@H](CO)C(=O)N[C@@H](CC(N)=O)C(=O)N[C@H](C(=O)N[C@@H](Cc1ccc(O)cc1)C(N)=O)[C@@H](C)O)C(C)C)[C@@H](C)O [Peptide 39, K(γE-C18diacid)K[CNTATC]ATQRLANFLEHSS(Aib)NFGPILPPTNVGSNTY-amide] (H-K([γGlu-C18 diacid])KCNTATCATQRLANFLEHSS[Aib]NFGPILPPTNVGSNTY-NH2; disulfide 3-8)
2950 pM | 6 | 470 pM | CC[C@H](C)[C@H](NC(=O)[C@@H]1CCCN1C(=O)CNC(=O)[C@H](Cc1ccccc1)NC(=O)[C@H](CC(N)=O)NC(=O)C(C)(C)NC(=O)[C@H](CO)NC(=O)[C@H](CO)NC(=O)[C@H](Cc1c[nH]cn1)NC(=O)[C@@H](NC(=O)[C@H](CC(C)C)NC(=O)[C@H](Cc1ccccc1)NC(=O)[C@H](CC(N)=O)NC(=O)[C@H](C)NC(=O)[C@H](CC(C)C)NC(=O)[C@H](CCCNC(=N)N)NC(=O)[C@H](CCC(N)=O)NC(=O)[C@@H](NC(=O)[C@H](C)NC(=O)[C@@H]1CSSC[C@H](NC(=O)[C@H](CCCCN)NC(=O)[C@@H](N)CCCCNC(=O)CC[C@H](NC(=O)CCCCCCCCCCCCCCCCC(=O)O)C(=O)O)C(=O)N[C@@H](CC(N)=O)C(=O)N[C@@H]([C@@H](C)O)C(=O)N[C@@H](C)C(=O)N[C@@H]([C@@H](C)O)C(=O)N1)[C@@H](C)O)C(C)C)C(=O)N[C@@H](CC(C)C)C(=O)N1CCC[C@H]1C(=O)N1CCC[C@H]1C(=O)N[C@H](C(=O)N[C@@H](CC(N)=O)C(=O)N[C@H](C(=O)NCC(=O)N[C@@H](CO)C(=O)N[C@@H](CCC(=O)O)C(=O)N[C@H](C(=O)N[C@@H](Cc1ccc(O)cc1)C(N)=O)[C@@H](C)O)C(C)C)[C@@H](C)O [Peptide 42, K(γE-C18diacid)K[CNTATC]ATQRLANFLVHSS(Aib)NFGPILPPTNVGSETY-amide] (H-K([γGlu-C18 diacid])KCNTATCATQRLANFLVHSS[Aib]NFGPILPPTNVGSETY-NH2; disulfide 3-8)
